Measurements: patent publication US20050130989A1, “N-arylheteroaromatic products compositions containing them and use thereof” (Aventis Pharma S. A., priority 2003, published 2005)
Counter-ions that a name gives are not always drawn.

Key:
[1] = biological target: T1, tubulin (Sus scrofa, UniProt P02550+P02554); experiment: Evaluation of the inhibition of tubulin polymerization (turbidimetry); type: biochemical, pig; settings: tubulin 10 μm (1 mg/ml), 37° C., turbidity at 350 nm; concentration that inhibits the rate of polymerization by 50%; read-out: Inhibition of tubulin polymerization IC 50 (μm)
T1 construct: Tubulin is purified from pig brain according to published methods; from tissue; host or cells: pig brain
T1 sequence (P02550 whole entry): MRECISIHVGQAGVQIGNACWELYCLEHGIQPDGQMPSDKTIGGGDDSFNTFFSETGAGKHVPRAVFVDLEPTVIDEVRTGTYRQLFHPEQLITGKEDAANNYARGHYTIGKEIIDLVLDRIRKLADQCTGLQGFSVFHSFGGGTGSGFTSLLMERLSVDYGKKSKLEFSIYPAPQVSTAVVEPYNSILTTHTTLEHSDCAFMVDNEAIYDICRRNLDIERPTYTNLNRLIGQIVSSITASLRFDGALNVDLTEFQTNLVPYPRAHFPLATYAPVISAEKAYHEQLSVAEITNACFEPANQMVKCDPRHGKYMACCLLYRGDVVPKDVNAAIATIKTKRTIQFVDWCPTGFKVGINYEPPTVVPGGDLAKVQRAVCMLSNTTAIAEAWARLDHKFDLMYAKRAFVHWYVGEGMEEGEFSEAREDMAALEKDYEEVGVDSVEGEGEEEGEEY
T1 sequence (P02554 whole entry): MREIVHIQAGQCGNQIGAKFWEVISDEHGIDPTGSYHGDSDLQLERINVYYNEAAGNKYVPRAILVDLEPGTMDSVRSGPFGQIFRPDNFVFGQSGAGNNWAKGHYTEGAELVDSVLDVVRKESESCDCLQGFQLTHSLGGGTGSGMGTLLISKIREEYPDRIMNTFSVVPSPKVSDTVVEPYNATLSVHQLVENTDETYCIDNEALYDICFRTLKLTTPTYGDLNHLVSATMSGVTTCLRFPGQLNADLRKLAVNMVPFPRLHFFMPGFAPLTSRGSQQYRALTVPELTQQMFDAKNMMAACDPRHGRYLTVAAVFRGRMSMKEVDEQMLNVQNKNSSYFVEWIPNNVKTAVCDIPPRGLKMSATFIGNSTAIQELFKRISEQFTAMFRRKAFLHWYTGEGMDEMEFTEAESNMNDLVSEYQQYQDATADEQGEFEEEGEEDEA
Procedure, shortened: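 Pig brain tubulin (>95% pure), 10 μm in MES pH 6.8/30% glycerol buffer plus 1 mM GTP and 6 mM MgCl2, with compound at 0.5–10 μm added before polymerization. Polymerization triggered by shift from 6° C to 37° C, followed by turbidity at 350 nm; IC50 is 50% inhibition of polymerization rate.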

[2] = system: HCT116 cells; experiment: Inhibition of proliferation of the human colon tumor line HCT116 ([14C]-thymidine incorporation); type: cell-based; settings: Homo sapiens, HCT-116, 48 h, 48 hours at 37° C., read-out: Inhibition of HCT116 proliferation IC 50 (μm)
Procedure, shortened: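 HCT116 cells (5000/well) in DMEM with 10% fetal calf serum incubated 48 h at 37° C with [14C]-thymidine (0.1 μCi/well) and compound up to 10 μm (DMSO ≤0.5%). Incorporated radioactivity counted; IC50 is concentration cutting radioactivity by 50% versus untreated control.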

Question: Which melting point does the source give for `Cc1cc(C(=O)N2CCN(c3cccc(C(=O)OC(C)(C)C)c3)CC2)n(-c2ccccc2)n1` [Example E27, tert-butyl 3-[4-(5-methyl-2-phenyl-2H-pyrazole-3-carbonyl)piperazin-1-yl]benzoate] here?
Answer: 144 °C

Question: And the IC50 [1]?
Answer: 22500 nM

Question: Which IC50 [2] does the source give for `Cc1cc(C(=O)N2CCN(c3cccnc3)CC2)n(-c2cccc(F)c2)n1` [Example E58, [2-(3-Fluorophenyl)-5-methyl-2H-pyrazol-3-yl](4-pyrid-3-ylpiperazin-1-yl)methanone] here?
Answer: 41.1 nM

Question: What about the melting point of the same compound?
Answer: 132 °C

Question: And the IC50 [1]?
Answer: 1000 nM

Question: With `Cc1cc(C(=O)N2CCN(c3cccc(Br)c3)CC2)n(-c2ccccc2)n1` [Example E6, [4-(3-Bromophenyl)piperazin-1-yl](5-methyl-2-phenyl-2H-pyrazol-3-yl)methanone] as the compound, how does the IC50 [2] read?
Answer: 1.2 nM

Question: And the melting point?
Answer: 138 °C

Question: What about the IC50 [1] of the same compound?
Answer: 900 nM

Question: What does the source list for `COc1cc(OC)cc(N2CCN(C(=O)c3cc(C)nn3-c3cccnc3)CC2)c1` [Example E53, [4-(3,5-Dimethoxyphenyl)piperazin-1-yl][5-methyl-2-(pyrid-3-yl)-2H-pyrazol-3-yl]methanone]?
Answer: IC50 [2]: 11.1 nM; melting point: 60 °C; IC50 [1]: 620 nM

Question: Which results are given for `COc1cc(OC)cc(N2CCN(C(=O)c3cc(C(F)(F)F)nn3-c3ccccc3)CC2)c1` [Example E117, [4-(3,5-Dimethoxyphenyl)piperazin-1-yl](2-phenyl-5-trifluoromethyl-2H-pyrazol-3-yl)methanone]?
Answer: IC50 [2]: 28.4 nM; melting point: 84 °C; IC50 [1]: 7900 nM

Question: Which results are given for `Cc1cc(C(=O)N2CCN(c3cccc(C(N)=O)c3)CC2)n(-c2ccccc2)n1` [Example E23, 3-[4-(5-Methyl-2-phenyl-2H-pyrazole-3-carbonyl)piperazin-1-yl]benzamide]?
Answer: IC50 [2]: 10 nM; melting point: 186 °C; IC50 [1]: 320 nM

Question: For `Cc1cc(C(=O)N2CCN(c3ccc4c(c3)OCO4)CC2)n(-c2ccccc2)n1` [Example E12, [4-(1,3-Benzodioxol-5-yl)piperazin-1-yl](5-methyl-2-phenyl-2H-pyrazol-3-yl)-methanone], which IC50 [2] is on record?
Answer: 3.1 nM

Question: And the melting point?
Answer: 128 °C

Question: And the IC50 [1]?
Answer: 2300 nM

Question: For `CC(=O)c1cccc(N2CCN(C(=O)c3cc(C)nn3-c3ccccc3)CC2)c1` [Example E107, 1-{3-[4-(5-Methyl-2-phenyl-2H-pyrazole-3-carbonyl)piperazin-1-yl]phenyl}ethanone], which IC50 [2] is on record?
Answer: 10.4 nM

Question: And the melting point?
Answer: 134 °C

Question: And the IC50 [1]?
Answer: 1400 nM

Question: Which results are given for `Cc1cc(C(=O)N2CC=C(c3ccccc3)CC2)n(-c2ccccc2)n1` [Example 4, (4-Phenyl-1,2,3,6-tetrahydropyridin-1-yl)(5-methyl-2-phenyl-2H-pyrazol-3-yl)-methanone]?
Answer: IC50 [2]: 58.8 nM; melting point: 68 °C; IC50 [1]: 3000 nM

Question: With `Cc1cc(C(=O)N2CCN(c3cc(F)c(F)c(F)c3)CC2)n(-c2ccccc2)n1` [Example E111, (5-Methyl-2-phenyl-2H-pyrazol-3-yl)[4-(3,4,5-trifluorophenyl)piperazin-1-yl]methanone] as the compound, how does the melting point read?
Answer: 204 °C

Question: And the IC50 [1]?
Answer: 2330 nM

Question: With `O=C(c1cccn1-c1ccccc1)N1CCN(c2cccc(Cl)c2)CC1` [Example 6, [4-(3-Chlorophenyl)piperazin-1-yl](1-phenyl-1H-pyrrol-2-yl)methanone] as the compound, how does the IC50 [2] read?
Answer: 38.2 nM

Question: And the melting point?
Answer: 105 °C

Question: What about the IC50 [1] of the same compound?
Answer: 1200 nM

Question: Which IC50 [2] does the source give for `Cc1cc(C(=O)N2CCN(c3cncc4ccccc34)CC2)n(-c2ccccc2)n1` [Example E41] here?
Answer: 89.4 nM

Question: What about the melting point of the same compound?
Answer: 166 °C

Question: And the IC50 [1]?
Answer: 4500 nM

Question: Which results are given for `Cc1cc(C(=O)N2CCN(c3cccc(Cl)c3)CC2)n(-c2cccnc2)n1` [Example E52, [4-(3-Chlorophenyl)piperazin-1-yl][5-methyl-2-(pyrid-3-yl)-2H-pyrazol-3-yl]methanone]?
Answer: IC50 [2]: 10.2 nM; melting point: 124 °C; IC50 [1]: 1410 nM

Question: Which results are given for `O=C(c1cc(C(F)(F)F)nn1-c1ccccc1)N1CCN(c2cccc(Cl)c2)CC1` [Example E118, [4-(3-Chlorophenyl)piperazin-1-yl](2-phenyl-5-trifluoromethyl-2H-pyrazol-3-yl)-methanone]?
Answer: IC50 [2]: 403 nM; melting point: 160 °C; IC50 [1]: 2300 nM

Question: Which results are given for `NC(=O)c1cccc(N2CCN(C(=O)c3cc(C(F)(F)F)nn3-c3ccccc3)CC2)c1` [Example E119, 3-[4-(2-Phenyl-5-trifluoromethyl-2H-pyrazole-3-carbonyl)piperazin-1-yl]benzamide]?
Answer: IC50 [2]: 10.3 nM; melting point: 160 °C; IC50 [1]: 1200 nM

Question: Which IC50 [2] does the source give for `Cc1cc(C(=O)N2CCN(c3cnccn3)CC2)n(-c2ccccc2)n1` [Example E19, (5-Methyl-2-phenyl-2H-pyrazol-3-yl)(2,3,5,6-tetrahydro-[1,2′]bipyrazinyl-4-yl)-methanone] here?
Answer: 40 nM

Question: What about the melting point of the same compound?
Answer: 129 °C

Question: And the IC50 [1]?
Answer: 6000 nM

Question: Which IC50 [2] does the source give for `Cc1cc(C(=O)N2CCN(c3cccc(C#N)c3)CC2)n(-c2ccccc2)n1` [Example E10, [4-(3-Cyanophenyl)piperazin-1-yl](5-methyl-2-phenyl-2H-pyrazol-3-yl)-methanone] here?
Answer: 4.9 nM

Question: And the melting point?
Answer: 136 °C

Question: And the IC50 [1]?
Answer: 900 nM

Question: Which melting point does the source give for `Cc1cc(C(=O)N2CCN(c3ccccc3[N+](=O)[O-])CC2)n(-c2ccccc2)n1` [Example E62, (5-Methyl-2-phenyl-2H-pyrazol-3-yl)[4-(2-nitrophenyl)piperazin-1-yl]methanone] here?
Answer: 127 °C

Question: And the IC50 [1]?
Answer: 13500 nM

Question: For `O=C(c1cccn1-c1ccccc1)N1CCN(c2cccnc2)CC1` (as salt: hydrochloride) [Example E46, (1-Phenyl-1H-pyrrol-2-yl)[4-(pyrid-3-yl)piperazin-1-yl]methanone hydrochloride], which melting point is on record?
Answer: 180 °C

Question: Which results are given for `NC(=O)c1cccc(N2CCN(C(=O)c3cc(CO)nn3-c3ccccc3)CC2)c1` [Example E134, 3-[4-(5-Hydroxymethyl-2-phenyl-2H-pyrazole-3-carbonyl)piperazin-1-yl]benzamide]?
Answer: melting point: 216 °C; IC50 [1]: 3200 nM

Question: For `COc1cc(OC)cc(N2CCN(C(=O)c3cc(Br)nn3-c3ccccc3)CC2)c1` [Example E82, (5-Bromo-2-phenyl-2H-pyrazol-3-yl)[4-(3,5-dimethoxyphenyl)piperazin-1-y]-methanone], which IC50 [2] is on record?
Answer: 1.8 nM

Question: And the IC50 [1]?
Answer: 940 nM

Question: Which IC50 [2] does the source give for `Cc1cc(C(=O)N2CCN(c3ccccc3)CC2)n(-c2cccc(F)c2)n1` [3/89] here?
Answer: 14 nM

Question: What about the IC50 [1] of the same compound?
Answer: 2200 nM

Question: What does the source list for `COc1cccc(-n2nc(C)cc2C(=O)N2CCN(c3cccc(Cl)c3)CC2)c1` [3/35]?
Answer: IC50 [2]: 284 nM; IC50 [1]: 5000 nM

Question: For `Cc1cc(C(=O)N2CCN(c3cccc(Cl)c3)CC2)n(-c2cc(Cl)ccc2Cl)n1` [Example E44, [4-(3-Chlorophenyl)piperazin-1-yl][2-(2,5-dichlorophenyl)-5-methyl-2H-pyrazol-3-yl]methanone], which IC50 [2] is on record?
Answer: 236 nM

Question: And the IC50 [1]?
Answer: 1680 nM

Question: Which results are given for `Cc1cc(C(=O)N2CCN(c3ccsc3)CC2)n(-c2ccccc2)n1` [Example E104, (5-Methyl-2-phenyl-2H-pyrazol-3-yl)[4-(thiophen-3-yl)piperazin-1-yl]-methanone]?
Answer: IC50 [2]: 839 nM; IC50 [1]: 8000 nM

Question: For `Cc1cc(C(=O)N2CCN(c3cccc(NCCO)c3)CC2)n(-c2ccccc2)n1` [Example E103, {4-[3-(2-Hydroxyethylamino)phenyl]piperazin-1-yl}-(5-methyl-2-phenyl-2H-pyrazol-3-yl)methanone], which IC50 [2] is on record?
Answer: 16.7 nM

Question: And the IC50 [1]?
Answer: 1000 nM

Question: With `Cc1cc(C(=O)N2CCN(c3ccccc3)CC2)n(-c2cccc(Cl)c2)n1` [3/40] as the compound, how does the IC50 [2] read?
Answer: 775 nM

Question: What about the IC50 [1] of the same compound?
Answer: 3000 nM
